One assay addresses T1, p300 (Homo sapiens, UniProt Q09472).
T1 construct: host or cells: A549 P300 HiBit cells
The experiment in a line: P300 degradation, HiBit technology in A549 P300 HiBit cells (2 h). Format: cell-based. Particulars: 2 hrs post treatment; for Dmax: A549, A549 P300 HiBit cells; for DC50 / P300 A549 2 h HiBit DMax (%): A549 P300 HiBit cells. Summed up:
(§1)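 Degradation potency and Dmax came from HiBiT luminescence in tagged A549 cells treated with serially diluted compound (DMSO stocks at 10 mM) after overnight equilibration in F-12K with 10% heat-inactivated FBS.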

A further assay concerns the target T2, CBP (Homo sapiens, UniProt Q92793).
T2 construct: host or cells: A549 CBP HiBit cells
Kind of assay: CBP degradation, HiBit technology in A549 CBP HiBit cells (24 h). Format: cell-based. Particulars: 24 hrs post treatment. Summed up:
as §1

The results in this text go back to patent publication US20250114345A1, “COMPOUNDS AND COMPOSITIONS AS CBP/P300 DEGRADERS AND USES THEREOF” (Oncopia Therapeutics, Inc. d/b/a/ SK Life Science Labs, priority 2023, published 2025).

T1 sequence (Q09472 whole entry): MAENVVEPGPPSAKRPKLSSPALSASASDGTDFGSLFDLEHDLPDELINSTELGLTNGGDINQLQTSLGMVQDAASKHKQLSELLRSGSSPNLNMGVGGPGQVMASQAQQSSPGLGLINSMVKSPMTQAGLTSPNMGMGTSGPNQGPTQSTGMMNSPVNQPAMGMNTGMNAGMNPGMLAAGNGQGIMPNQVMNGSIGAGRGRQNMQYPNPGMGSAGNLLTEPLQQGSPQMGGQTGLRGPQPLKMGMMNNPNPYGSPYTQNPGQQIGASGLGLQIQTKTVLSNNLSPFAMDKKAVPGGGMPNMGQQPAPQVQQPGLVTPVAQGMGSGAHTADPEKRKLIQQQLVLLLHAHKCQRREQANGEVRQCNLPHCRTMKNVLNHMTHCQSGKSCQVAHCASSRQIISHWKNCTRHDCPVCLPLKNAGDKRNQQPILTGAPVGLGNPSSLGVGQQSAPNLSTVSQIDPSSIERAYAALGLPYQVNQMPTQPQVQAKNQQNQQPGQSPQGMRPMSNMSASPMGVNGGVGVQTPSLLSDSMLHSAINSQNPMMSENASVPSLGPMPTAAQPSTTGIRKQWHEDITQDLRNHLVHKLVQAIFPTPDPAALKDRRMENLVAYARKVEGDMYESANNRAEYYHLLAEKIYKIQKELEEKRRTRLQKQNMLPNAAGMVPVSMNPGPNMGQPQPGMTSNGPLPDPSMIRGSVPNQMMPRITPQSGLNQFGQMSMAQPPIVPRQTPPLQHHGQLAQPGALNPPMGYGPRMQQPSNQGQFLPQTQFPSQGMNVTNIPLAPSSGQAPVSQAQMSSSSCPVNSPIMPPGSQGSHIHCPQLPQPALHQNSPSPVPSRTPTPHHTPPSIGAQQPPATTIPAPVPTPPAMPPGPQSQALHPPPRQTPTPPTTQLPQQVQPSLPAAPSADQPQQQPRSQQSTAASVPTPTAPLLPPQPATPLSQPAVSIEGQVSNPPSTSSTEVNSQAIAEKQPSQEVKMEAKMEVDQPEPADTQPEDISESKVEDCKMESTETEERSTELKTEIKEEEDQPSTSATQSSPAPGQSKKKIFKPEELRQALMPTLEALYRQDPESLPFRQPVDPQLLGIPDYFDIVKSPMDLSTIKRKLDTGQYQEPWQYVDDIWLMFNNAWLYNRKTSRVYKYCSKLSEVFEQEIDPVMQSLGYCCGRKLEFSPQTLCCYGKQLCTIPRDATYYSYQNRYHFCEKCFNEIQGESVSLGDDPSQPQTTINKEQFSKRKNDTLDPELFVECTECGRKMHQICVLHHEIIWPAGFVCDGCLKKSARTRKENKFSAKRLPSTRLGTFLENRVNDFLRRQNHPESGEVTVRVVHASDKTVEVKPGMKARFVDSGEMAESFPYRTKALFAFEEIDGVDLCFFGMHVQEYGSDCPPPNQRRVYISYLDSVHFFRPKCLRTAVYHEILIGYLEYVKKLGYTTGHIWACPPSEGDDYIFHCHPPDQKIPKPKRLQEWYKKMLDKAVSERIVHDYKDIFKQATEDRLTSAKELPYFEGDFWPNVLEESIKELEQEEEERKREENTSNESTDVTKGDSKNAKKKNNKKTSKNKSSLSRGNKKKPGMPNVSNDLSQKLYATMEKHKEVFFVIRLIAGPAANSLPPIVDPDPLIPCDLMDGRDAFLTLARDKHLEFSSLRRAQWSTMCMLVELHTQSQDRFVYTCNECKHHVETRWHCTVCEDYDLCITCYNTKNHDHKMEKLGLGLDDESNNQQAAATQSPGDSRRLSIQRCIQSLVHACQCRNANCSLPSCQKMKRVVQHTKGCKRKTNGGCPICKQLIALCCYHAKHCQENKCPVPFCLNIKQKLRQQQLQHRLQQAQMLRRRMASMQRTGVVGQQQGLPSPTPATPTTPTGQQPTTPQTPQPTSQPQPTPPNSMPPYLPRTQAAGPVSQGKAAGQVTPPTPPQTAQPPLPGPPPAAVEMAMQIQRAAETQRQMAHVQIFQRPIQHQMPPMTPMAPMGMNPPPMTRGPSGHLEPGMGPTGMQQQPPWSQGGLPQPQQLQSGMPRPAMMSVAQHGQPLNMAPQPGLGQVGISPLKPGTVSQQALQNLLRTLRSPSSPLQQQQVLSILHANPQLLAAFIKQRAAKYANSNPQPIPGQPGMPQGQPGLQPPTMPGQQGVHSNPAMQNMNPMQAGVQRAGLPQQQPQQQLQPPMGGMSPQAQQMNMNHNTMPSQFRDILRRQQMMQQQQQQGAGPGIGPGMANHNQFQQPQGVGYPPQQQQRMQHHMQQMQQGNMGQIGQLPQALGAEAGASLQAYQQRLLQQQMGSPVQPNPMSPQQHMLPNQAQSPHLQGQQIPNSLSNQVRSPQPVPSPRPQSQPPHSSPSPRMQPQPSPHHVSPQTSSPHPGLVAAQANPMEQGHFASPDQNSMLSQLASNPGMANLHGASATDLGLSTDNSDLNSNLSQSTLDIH
T2 sequence (Q92793 whole entry): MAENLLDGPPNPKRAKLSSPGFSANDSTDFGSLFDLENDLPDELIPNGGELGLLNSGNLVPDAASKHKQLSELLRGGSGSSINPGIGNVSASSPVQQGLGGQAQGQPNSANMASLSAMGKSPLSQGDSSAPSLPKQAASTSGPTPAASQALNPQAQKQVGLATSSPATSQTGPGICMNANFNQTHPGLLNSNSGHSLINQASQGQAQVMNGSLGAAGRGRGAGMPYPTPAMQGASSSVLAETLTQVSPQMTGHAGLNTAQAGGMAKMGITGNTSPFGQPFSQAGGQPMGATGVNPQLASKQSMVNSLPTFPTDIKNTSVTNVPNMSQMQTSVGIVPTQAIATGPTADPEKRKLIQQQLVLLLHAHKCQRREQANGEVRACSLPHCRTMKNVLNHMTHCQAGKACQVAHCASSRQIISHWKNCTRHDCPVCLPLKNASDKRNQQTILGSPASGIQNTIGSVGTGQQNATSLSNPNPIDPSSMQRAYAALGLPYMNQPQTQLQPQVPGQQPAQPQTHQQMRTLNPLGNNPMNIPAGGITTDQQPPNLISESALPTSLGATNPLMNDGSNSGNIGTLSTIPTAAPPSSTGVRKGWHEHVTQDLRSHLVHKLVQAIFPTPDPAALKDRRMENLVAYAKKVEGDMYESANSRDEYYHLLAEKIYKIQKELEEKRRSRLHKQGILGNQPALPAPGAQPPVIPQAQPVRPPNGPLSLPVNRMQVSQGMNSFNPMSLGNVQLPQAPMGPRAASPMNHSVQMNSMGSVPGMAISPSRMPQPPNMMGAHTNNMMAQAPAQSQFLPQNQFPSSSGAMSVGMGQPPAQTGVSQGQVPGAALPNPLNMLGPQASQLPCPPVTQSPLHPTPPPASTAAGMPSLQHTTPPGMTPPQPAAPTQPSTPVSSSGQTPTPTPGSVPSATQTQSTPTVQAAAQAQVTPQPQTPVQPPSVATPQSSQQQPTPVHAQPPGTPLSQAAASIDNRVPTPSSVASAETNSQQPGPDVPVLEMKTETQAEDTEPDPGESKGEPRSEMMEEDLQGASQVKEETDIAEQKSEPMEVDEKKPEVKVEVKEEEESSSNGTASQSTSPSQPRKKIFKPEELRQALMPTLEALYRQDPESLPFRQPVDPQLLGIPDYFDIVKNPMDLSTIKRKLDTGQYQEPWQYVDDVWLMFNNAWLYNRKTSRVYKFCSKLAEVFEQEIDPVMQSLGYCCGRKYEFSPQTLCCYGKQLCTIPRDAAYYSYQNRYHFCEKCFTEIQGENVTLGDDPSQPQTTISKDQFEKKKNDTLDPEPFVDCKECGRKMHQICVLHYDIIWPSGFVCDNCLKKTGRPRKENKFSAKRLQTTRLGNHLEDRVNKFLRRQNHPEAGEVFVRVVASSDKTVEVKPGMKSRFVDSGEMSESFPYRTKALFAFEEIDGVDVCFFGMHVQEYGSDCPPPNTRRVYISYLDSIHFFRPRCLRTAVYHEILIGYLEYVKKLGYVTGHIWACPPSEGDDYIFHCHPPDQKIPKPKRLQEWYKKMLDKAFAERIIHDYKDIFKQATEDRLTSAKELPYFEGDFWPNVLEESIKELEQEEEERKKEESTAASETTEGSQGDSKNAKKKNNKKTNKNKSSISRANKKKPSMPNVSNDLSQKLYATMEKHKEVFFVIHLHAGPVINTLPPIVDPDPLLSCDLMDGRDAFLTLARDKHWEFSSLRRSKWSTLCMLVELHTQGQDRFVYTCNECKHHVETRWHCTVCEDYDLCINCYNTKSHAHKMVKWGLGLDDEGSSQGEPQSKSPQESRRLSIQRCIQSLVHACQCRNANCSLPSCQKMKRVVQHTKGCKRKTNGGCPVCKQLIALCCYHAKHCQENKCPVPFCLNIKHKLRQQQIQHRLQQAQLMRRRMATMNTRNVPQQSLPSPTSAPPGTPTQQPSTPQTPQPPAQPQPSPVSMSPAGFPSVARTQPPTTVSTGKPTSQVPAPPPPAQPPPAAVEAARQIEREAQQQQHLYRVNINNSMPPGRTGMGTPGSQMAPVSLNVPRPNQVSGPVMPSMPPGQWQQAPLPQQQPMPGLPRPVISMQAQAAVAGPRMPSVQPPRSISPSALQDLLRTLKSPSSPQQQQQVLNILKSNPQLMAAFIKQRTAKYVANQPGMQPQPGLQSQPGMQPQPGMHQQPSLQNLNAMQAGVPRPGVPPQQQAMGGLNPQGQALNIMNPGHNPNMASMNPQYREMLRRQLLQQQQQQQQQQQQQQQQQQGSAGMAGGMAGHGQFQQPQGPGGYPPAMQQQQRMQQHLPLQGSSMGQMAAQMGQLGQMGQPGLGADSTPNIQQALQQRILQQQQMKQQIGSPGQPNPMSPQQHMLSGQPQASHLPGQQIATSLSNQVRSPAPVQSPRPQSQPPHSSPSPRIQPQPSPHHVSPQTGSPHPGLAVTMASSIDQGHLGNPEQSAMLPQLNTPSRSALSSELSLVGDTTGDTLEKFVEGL

At p300, `CCN(c1cnc(-c2cnc(C(=O)NCC#Cc3ccc4occ(C5CCC(=O)NC5=O)c4c3)c(C)c2)nc1)c1cc(C(C)C)c2c(c1)n(C)c(=O)n2C` (stereo not shown) [Example A70, N-(3-(3-(2,6-dioxopiperidin-3-yl)benzofuran-5-yl)prop-2-yn-1-yl)-5-(5-(ethyl(7-isopropyl-1,3-dimethyl-2-oxo-2,3-dihydro-1H-benzo[d]imidazol-5-yl)amino)pyrimidin-2-yl)-3-methylpicolinamide] returned a maximal degradation (Dmax) of over 80% and a DC50 of 1 to 9.9 nM. On CBP, this compound showed a half-maximal degradation concentration (DC50) of over 1000 nM and a Dmax of under 20%.
On p300, `Cc1ccc(-c2ccc3c(c2)n(C)c(=O)n3C)c2cnc(-c3ccc(C(=O)NCC#Cc4ccc5occ(C6CCC(=O)NC6=O)c5c4)nc3)cc12` (stereo not shown) [Example A72, 5-(8-(1,3-dimethyl-2-oxo-2,3-dihydro-1H-benzo[d]imidazol-5-yl)-5-methylisoquinolin-3-yl)-N-(3-(3-(2,6-dioxopiperidin-3-yl)benzofuran-5-yl)prop-2-yn-1-yl)picolinamide] had a maximal degradation (Dmax) of over 80% and a 50% degradation concentration (DC50) of 1 to 9.9 nM. On CBP, this compound showed a half-maximal degradation concentration (DC50) of over 1000 nM and a maximal degradation (Dmax) of under 20%.
Consider `CC(C)c1cc(C2=CC(C)(C)Oc3cc(-c4ccc(C(=O)NCC#Cc5ccc6occ(C7CCC(=O)NC7=O)c6c5)nc4)ncc32)cc2c1n(C)c(=O)n2C` (stereo not shown) [Example A75, N-(3-(3-(2,6-dioxopiperidin-3-yl)benzofuran-5-yl)prop-2-yn-1-yl)-5-(4-(7-isopropyl-1,3-dimethyl-2-oxo-2,3-dihydro-1H-benzo[d]imidazol-5-yl)-2,2-dimethyl-2H-pyrano[3,2-c]pyridin-7-yl)picolinamide], for which, on p300, the Dmax was over 80% and the 50% degradation concentration (DC50) was in the range of 1 to 9.9 nM. On CBP, this compound gave a DC50 of over 1000 nM and a maximal degradation (Dmax) of under 20%.
For the compound `Cc1cc(-c2ncc3c(n2)CCCN3c2ccc3c(c2)n(C)c(=O)n3C)cnc1C(=O)NCC#Cc1ccc2occ(C3CCC(=O)NC3=O)c2c1` (stereo not shown) [Example A79, 5-(5-(1,3-dimethyl-2-oxo-2,3-dihydro-1H-benzo[d]imidazol-5-yl)-5,6,7,8-tetrahydropyrido[3,2-d]pyrimidin-2-yl)-N-(3-(3-(2,6-dioxo-piperidin-3-yl)benzofuran-5-yl)prop-2-yn-1-yl)-3-methylpicolinamide], on p300, the Dmax is over 80% and the 50% degradation concentration (DC50) is 1 to 9.9 nM. At CBP, this compound registered a DC50 of over 1000 nM and a Dmax of under 20%.
Consider `CC(C)c1cc(C2CC(C)(C)Oc3cc(-c4ccc(C(=O)NCC#Cc5ccc6occ(C7CCC(=O)NC7=O)c6c5)nc4)ncc32)cc2c1n(C)c(=O)n2C` (stereo not shown) [Example A83, N-(3-(3-(2,6-dioxo-piperidin-3-yl)benzofuran-5-yl)prop-2-yn-1-yl)-5-(4-(7-isopropyl-1,3-dimethyl-2-oxo-2,3-dihydro-1H-benzo [d]imidazol-5-yl)-2,2-dimethyl-3,4-dihydro-2H-pyrano[3,2-c]pyridin-7-yl) picolinamide], for which, at p300, the Dmax was over 80% and the DC50 lay in the range of 1 to 9.9 nM. Further, on CBP, the DC50 was over 1000 nM and the greatest degradation seen (Dmax) is under 20%.
As to `Cc1cc(-c2ccc3c(c2)n(C)c(=O)n3C)c2cnc(-c3ccc(C(=O)NCC#Cc4ccc5occ(C6CCC(=O)NC6=O)c5c4)nc3)cc2c1` (stereo not shown) [Example A84, 5-(8-(1,3-dimethyl-2-oxo-2,3-dihydro-1H-benzo[d]imidazol-5-yl)-6-methylisoquinolin-3-yl)-N-(3-(3-(2,6-dioxo-piperidin-3-yl)benzofuran-5-yl)prop-2-yn-1-yl) picolinamide], at p300, the maximal degradation (Dmax) was over 80% and the DC50 was 10 to 99 nM. Further, on CBP, the DC50 is over 1000 nM and the maximal degradation (Dmax) is under 20%.
At p300, `Cn1c(=O)n(C)c2c(N3CC4CCC(C3)O4)nc(-c3cccc4cc(-c5ccc(C(=O)NCC#Cc6ccc7occ(C8CCC(=O)NC8=O)c7c6)nc5)ncc34)cc21` (stereo not shown) [Example A86, 5-(8-(4-(8-oxa-3-azabicyclo[3.2.1]octan-3-yl)-1,3-dimethyl-2-oxo-2,3-dihydro-1H-imidazo[4,5-c]pyridin-6-yl)isoquinolin-3-yl)-N-(3-(3-(2,6-dioxo-piperidin-3-yl)benzofuran-5-yl)prop-2-yn-1-yl)picolinamide] had a maximal degradation (Dmax) of over 80% and a DC50 of 1 to 9.9 nM. On CBP, this compound returned a DC50 of over 1000 nM and a Dmax of under 20%.
In the same order, the values of `Cc1cc(-c2cc3cccc(-c4cc(C)c5c(c4)n(C)c(=O)n5C)c3cn2)cnc1C(=O)NCC#Cc1ccc2occ(C3CCC(=O)NC3=O)c2c1` (stereo not shown) [Example A87, N-(3-(3-(2,6-dioxo-piperidin-3-yl)benzofuran-5-yl)prop-2-yn-1-yl)-3-methyl-5-(8-(1,3,7-trimethyl-2-oxo-2,3-dihydro-1H-benzo [d]imidazol-5-yl)isoquinolin-3-yl)picolinamide] are over 80%, 1 to 9.9 nM, over 1000 nM and under 20%.
On to `Cc1cc(-c2ncc3c(n2)OCCN3c2cc(C)c3c(c2)n(C)c(=O)n3C)cnc1C(=O)NCC#Cc1ccc2occ(C3CCC(=O)NC3=O)c2c1` (stereo not shown) [Example A88, N-(3-(3-(2,6-dioxo-piperidin-3-yl)benzofuran-5-yl)prop-2-yn-1-yl)-3-methyl-5-(5-(1,3,7-trimethyl-2-oxo-2,3-dihydro-1H-benzo [d]imidazol-5-yl)-6,7-dihydro-5H-pyrimido [4,5-b][1,4]oxazin-2-yl)picolinamide], for which, on p300, the maximal degradation (Dmax) is over 80% and the DC50 was over 1000 nM. Moreover, on CBP, the half-maximal degradation concentration (DC50) was over 1000 nM and the Dmax is under 20%.
For the compound `CC(C)c1cc(N2CCOc3nc(-c4ccc(C(=O)NCC#Cc5ccc6occ(C7CCC(=O)NC7=O)c6c5)nc4)ncc32)cc2c1n(C)c(=O)n2C` (stereo not shown) [Example A89, N-(3-(3-(2,6-dioxo-piperidin-3-yl)benzofuran-5-yl)prop-2-yn-1-yl)-5-(5-(7-isopropyl-1,3-dimethyl-2-oxo-2,3-dihydro-1H-benzo[d]imidazol-5-yl)-6,7-dihydro-5H-pyrimido [4,5-b][1,4]oxazin-2-yl)picolinamide], on p300, the greatest degradation seen (Dmax) was over 80% and the DC50 is over 1000 nM. At CBP, the 50% degradation concentration (DC50) is over 1000 nM and the greatest degradation seen (Dmax) is under 20%.
Consider `Cc1cc(-c2ncc3c(n2)OCCN3c2ccc3c(c2)n(C)c(=O)n3C)cnc1C(=O)NCC#Cc1ccc2occ(C3CCC(=O)NC3=O)c2c1` (stereo not shown) [Example A92, 5-(5-(1,3-dimethyl-2-oxo-2,3-dihydro-1H-benzo[d]imidazol-5-yl)-6,7-dihydro-5H-pyrimido[4,5-b][1,4]oxazin-2-yl)-N-(3-(3-(2,6-dioxopiperidin-3-yl)benzofuran-5-yl)prop-2-yn-1-yl)-3-methylpicolinamide], for which, on p300, the DC50 lay within 1 to 9.9 nM and the “P300 A549 2 h HiBit DMax (%)” value is recorded as “A (“A”: > 80%)”. At CBP, this compound showed a 50% degradation concentration (DC50) of over 1000 nM and a Dmax of under 20%.
Regarding `Cc1cc(-c2ncc3c(n2)OCCN3c2ccc3c(c2)n(C)c(=O)n3C)cnc1C(=O)NCC#Cc1ccc2occ(C3CCC(=O)NC3=O)c2c1` (stereo not shown) [Example A93, 5-(5-(1,3-dimethyl-2-oxo-2,3-dihydro-1H-benzo[d]imidazol-5-yl)-6,7-dihydro-5H-pyrimido[4,5-b][1,4]oxazin-2-yl)-N-(3-(3-(2,6-dioxopiperidin-3-yl)benzofuran-5-yl)prop-2-yn-1-yl)-3-methylpicolinamide], on p300, the DC50 was 10 to 99 nM and the “P300 A549 2 h HiBit DMax (%)” value is given as “D (“D”: 20-39%)”. In addition, at CBP, the “CBP A549 24 h HiBit DMax (%)” value was “E (“E”: < 20%)” and the DC50 was over 1000 nM.
At p300, `CCN(c1cnc(-c2cnc(C(=O)NCC#Cc3ccc4occ(C5CCC(=O)NC5=O)c4c3)c(C)c2)nc1)c1cc(C2CCOCC2)c2c(c1)n(C)c(=O)n2C` (stereo not shown) [Example A95, 5-(5-((1,3-dimethyl-2-oxo-7-(tetrahydro-2H-pyran-4-yl)-2,3-dihydro-1H-benzo [d]imidazol-5-yl)(ethyl)amino)pyrimidin-2-yl)-N-(3-(3-(2,6-dioxopiperidin-3-yl)benzofuran-5-yl)prop-2-yn-1-yl)-3-methylpicolinamide] returned a maximal degradation (Dmax) of over 80% and a DC50 of 1 to 9.9 nM. For the same compound, at CBP, the DC50 is over 1000 nM and the Dmax was under 20%.
Turning to `Cc1cc(-c2cccc3cc(-c4ccc(C(=O)NCC#Cc5ccc6occ(C7CCC(=O)NC7=O)c6c5)nc4)ncc23)cc2c1n(C)c(=O)n2C` (stereo not shown) [Example A96, N-(3-(3-(2,6-dioxo-piperidin-3-yl)benzofuran-5-yl)prop-2-yn-1-yl)-5-(8-(1,3,7-trimethyl-2-oxo-2,3-dihydro-1H-benzo[d]imidazol-5-yl)isoquinolin-3-yl)picolinamide], the Dmax is over 80% at p300 and under 20% on CBP. Besides, the DC50 was 1 to 9.9 nM at p300 and over 1000 nM on CBP.
On to `CC(C)c1cc(-c2cn(C)c(=O)c3cc(-c4ccc(C(=O)NCC#Cc5ccc6occ(C7CCC(=O)NC7=O)c6c5)nc4)ncc23)cc2c1n(C)c(=O)n2C` (stereo not shown) [Example A97, N-(3-(3-(2,6-dioxo-piperidin-3-yl)benzofuran-5-yl)prop-2-yn-1-yl)-5-(8-(7-isopropyl-1,3-dimethyl-2-oxo-2,3-dihydro-1H-benzo [d]imidazol-5-yl)-6-methyl-5-oxo-5,6-dihydro-2,6-naphthyridin-3-yl) picolinamide], for which, at p300, the maximal degradation (Dmax) was over 80% and the DC50 was 1 to 9.9 nM. At CBP, this compound registered a half-maximal degradation concentration (DC50) of 10 to 99 nM and a Dmax of 40 to 59%.
Consider `Cn1c(=O)n(C)c2c(N3C4COCC3C4)nc(-c3cccc4cc(-c5ccc(C(=O)NCC#Cc6ccc7occ(C8CCC(=O)NC8=O)c7c6)nc5)ncc34)cc21` (stereo not shown) [Example A99, 5-(8-(4-(3-oxa-6-azabicyclo[3.1.1]heptan-6-yl)-1,3-dimethyl-2-oxo-2,3-dihydro-1H-imidazo[4,5-c]pyridin-6-yl)isoquinolin-3-yl)-N-(3-(3-(2,6-dioxo-piperidin-3-yl)benzofuran-5-yl)prop-2-yn-1-yl)picolinamide], for which the Dmax was over 80% on p300 and under 20% on CBP. The 50% degradation concentration (DC50) is under 1 nM at p300 and over 1000 nM on CBP.
